According to ChEMBL document CHEMBL1146827, “Synthesis and evaluation as sialidase inhibitors of xylo-configured cyclohexenephosphonates carrying glycerol side-chain mimics” (Bioorg Med Chem Lett, 2004):

Columns and labels:
[1] = Compound was tested for inhibitory activity against sialidase from Clostridium perfringens; n.a. = not active
[2] = Compound was tested for inhibitory activity against sialidase from Salmonella Typhimurium; set-up: species or system Salmonella enterica subsp. enterica serovar Typhimurium
[3] = Compound was tested for inhibitory activity against sialidase from Vibrio cholerae

SMILES	IC50 [1]	IC50 [2] [mM]	IC50 [3] [mM]
C=CCO[C@@H]1CC(P(=O)(O)O)=C[C@H](O)[C@H]1NC(C)=O.CCN(CC)CC.CCN(CC)CC	Not Active	< 2	1.5
CC(=O)N[C@@H]1[C@@H](O)C=C(P(=O)(O)O)C[C@H]1OCC(O)CO.N.N (stereo partly specified)	Not Active	> 4	
CC(=O)N[C@@H]1[C@H](O)C=C(P(=O)(O)O)C[C@H]1OCCO.N.N	Not Active	1.8	1.6
CC(=O)N[C@H]1[C@H](O)CC(P(=O)(O)O)=C[C@@H]1O.N.N	Not Active	1	1.8
